According to ChEMBL document CHEMBL1201862, “PubChem BioAssay data set” (2004):
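1) Cells in 96-well plates. 2) Compound, 48 h, 5 concentrations. 3) Linear interpolation between surrounding doses. 4) Unreached endpoint = highest concentration. The concentration for 50% growth inhibition is given as GI50.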 The source made the active and inactive calls. Cut-off read from the data, not from the text of the source: active = GI50 up to about 1.1 µM and inactive = higher.

What was measured:
Experiment in all cases: growth of human tumour cells (NCI), 48 h
[1] = system: SNB-75
[2] = system: HCC 2998
[3] = system: SK-OV-3
[4] = system: SF-539
[5] = system: SN12C
[6] = system: OVCAR-3
[7] = system: SF-268
[8] = system: RPMI-8226
[9] = system: NCI-H522
[10] = system: CCRF-CEM
[11] = system: U-251
[12] = system: A549
[13] = system: CAKI-1
[14] = system: TK-10
[15] = system: Malme-3M
[16] = system: NCI-H226
[17] = system: UACC-62
[18] = system: HOP-92
[19] = system: 786-0
[20] = system: HT-29

SMILES | GI50 [1] | GI50 [2] | GI50 [3] | GI50 [4] | GI50 [5] | GI50 [6] | GI50 [7] | GI50 [8] | GI50 [9] | GI50 [10] | GI50 [11] | GI50 [12] | GI50 [13] | GI50 [14] | GI50 [15] | GI50 [16] | GI50 [17] | GI50 [18] | GI50 [19] | GI50 [20]
CC1=C(C(=O)CC(=O)C(=O)Nc2ccccc2C(F)(F)F)Sc2ccccc2N1 | 4.23 µM (inactive) | 41.1 µM (inactive) | > 100 µM (inactive) | 31.2 µM (inactive) | 56.4 µM (inactive) | 25.4 µM (inactive) | 15.7 µM (inactive) | 60 µM (inactive) | 24.5 µM (inactive) | 49.7 µM (inactive) | 64.9 µM (inactive) | 51.1 µM (inactive) | 53.2 µM (inactive) | > 100 µM (inactive) | > 100 µM (inactive) | 15.6 µM (inactive) | 38.5 µM (inactive) | 20.8 µM (inactive) | > 100 µM (inactive) | > 100 µM (inactive)
Cn1c(=O)[nH]c2[nH]c3ccccc3c2c1=O | 32.1 µM (inactive) | > 100 µM (inactive) | > 100 µM (inactive) | > 100 µM (inactive) | > 100 µM (inactive) | > 100 µM (inactive) | > 100 µM (inactive) | 92 µM (inactive) | > 100 µM (inactive) | > 100 µM (inactive) | > 100 µM (inactive) | > 100 µM (inactive) | > 100 µM (inactive) | > 100 µM (inactive) | > 100 µM (inactive) | > 100 µM (inactive) | > 100 µM (inactive) | > 100 µM (inactive) | > 100 µM (inactive) | > 100 µM (inactive)
CC12C/C(=C\c3ccccc3)C(=O)C3C1CCCC32 | 92.9 µM (inactive) | 44.5 µM (inactive) | > 100 µM (inactive) | > 100 µM (inactive) | > 100 µM (inactive) | 74.6 µM (inactive) | > 100 µM (inactive) | 34.2 µM (inactive) | 26.5 µM (inactive) | 33.3 µM (inactive) | 61.4 µM (inactive) | > 100 µM (inactive) | > 100 µM (inactive) | > 100 µM (inactive) | > 100 µM (inactive) | > 100 µM (inactive) | > 100 µM (inactive) | > 100 µM (inactive) | 95.9 µM (inactive) | 31.6 µM (inactive)
CC(C)(C)c1ccc2c(c1)CNCCNCc1cc(C(C)(C)C)ccc1OCC1(CO2)COc2ccc(C(C)(C)C)cc2CNCCNCc2cc(C(C)(C)C)ccc2OC1 | 1.51 µM (inactive) | 0.335 µM (active) | 1.84 µM (inactive) | 0.933 µM (active) | 0.404 µM (active) | 1.61 µM (inactive) | 1.78 µM (inactive) | 0.372 µM (active) | 0.284 µM (active) | 0.2 µM (active) | 0.242 µM (active) | 0.433 µM (active) | 1.41 µM (inactive) | 1.85 µM (inactive) | 1.41 µM (inactive) | 1.55 µM (inactive) | 1.4 µM (inactive) | 1.26 µM (inactive) | 0.25 µM (active) | 0.665 µM (active)
NNC(=O)c1ccccc1NC(=O)/C(=C/c1ccccc1)NC(=O)c1ccccc1 | 70.1 µM (inactive) | > 100 µM (inactive) | > 100 µM (inactive) | > 100 µM (inactive) | > 100 µM (inactive) | > 100 µM (inactive) | > 100 µM (inactive) | > 100 µM (inactive) | > 100 µM (inactive) | 43.6 µM (inactive) | 58.6 µM (inactive) | > 100 µM (inactive) | > 100 µM (inactive) | > 100 µM (inactive) | > 100 µM (inactive) | > 100 µM (inactive) | > 100 µM (inactive) | > 100 µM (inactive) | > 100 µM (inactive) | > 100 µM (inactive)
Cc1ccc(/C=C2\CCCC(CN3CCCCC3)C2=O)cc1 (centres undefined) | 4.66 µM (inactive) | 15.3 µM (inactive) | 16.5 µM (inactive) | 4.42 µM (inactive) | 2.96 µM (inactive) | 1.87 µM (inactive) | 2.09 µM (inactive) | > 100 µM (inactive) | 1.79 µM (inactive) | 0.757 µM (active) | 14.3 µM (inactive) | 17.7 µM (inactive) | 1.79 µM (inactive) | 3.22 µM (inactive) | 2.51 µM (inactive) | 2.29 µM (inactive) | 4.73 µM (inactive) | 1.81 µM (inactive) | 2.02 µM (inactive) | 1.77 µM (inactive)
CCOC(OC(C)=O)[C@@H]1C=C[C@H](C)N(c2ccc([N+](=O)[O-])cc2)O1 (some centres undefined) | 4.79 µM (inactive) | 11.9 µM (inactive) | 17.8 µM (inactive) | 2.54 µM (inactive) | 3.4 µM (inactive) | 5.66 µM (inactive) | 3.13 µM (inactive) | 2.06 µM (inactive) | 3.16 µM (inactive) | 2.29 µM (inactive) | 2.74 µM (inactive) | 20.2 µM (inactive) | 7.8 µM (inactive) | 5.7 µM (inactive) | 7.98 µM (inactive) | 5.57 µM (inactive) | 2.54 µM (inactive) | 6.25 µM (inactive) | 2.67 µM (inactive) | 3.17 µM (inactive)
Nc1ccccc1C(=O)/C=C/c1ccccc1O | 17.5 µM (inactive) | 32.3 µM (inactive) | > 100 µM (inactive) | 78.7 µM (inactive) | 55.2 µM (inactive) | 31.4 µM (inactive) | 56.5 µM (inactive) | 27.5 µM (inactive) | 34.5 µM (inactive) | 33.9 µM (inactive) | 95.9 µM (inactive) | 45.5 µM (inactive) | 25.6 µM (inactive) | 93.5 µM (inactive) | > 100 µM (inactive) | > 100 µM (inactive) | 57.1 µM (inactive) | 20.6 µM (inactive) | 57 µM (inactive) | > 100 µM (inactive)
O=C1C=C(OCCCCl)C(=O)c2c(O)ccc(O)c21 | 1.4 µM (inactive) | 1.91 µM (inactive) | 2.24 µM (inactive) | 1.38 µM (inactive) | 0.35 µM (active) | 0.505 µM (active) | 1.73 µM (inactive) | 2.06 µM (inactive) | 2.36 µM (inactive) | 0.661 µM (active) | 2.01 µM (inactive) | 0.266 µM (active) | 1.85 µM (inactive) | 1.81 µM (inactive) | 0.167 µM (active) | 1.84 µM (inactive) | 0.286 µM (active) | 1.42 µM (inactive) | 1.56 µM (inactive) | 0.581 µM (active)
O=C(C=C1SCCS1)/C=C\c1ccc(Cl)cc1 | > 100 µM (inactive) | 26.4 µM (inactive) | > 100 µM (inactive) | > 100 µM (inactive) | > 100 µM (inactive) | > 100 µM (inactive) | > 100 µM (inactive) | 31.5 µM (inactive) | > 100 µM (inactive) | 51.3 µM (inactive) | – | > 100 µM (inactive) | > 100 µM (inactive) | 97.5 µM (inactive) | > 100 µM (inactive) | 83.2 µM (inactive) | 99.8 µM (inactive) | > 100 µM (inactive) | > 100 µM (inactive) | 41.4 µM (inactive)
CO[C@]12C[C@@H](CNC(=O)c3cc(Br)c[nH]3)O[C@H]1NC(=O)N2 | > 100 µM (inactive) | > 100 µM (inactive) | > 100 µM (inactive) | > 100 µM (inactive) | > 100 µM (inactive) | > 100 µM (inactive) | > 100 µM (inactive) | > 100 µM (inactive) | > 100 µM (inactive) | > 100 µM (inactive) | > 100 µM (inactive) | > 100 µM (inactive) | > 100 µM (inactive) | > 100 µM (inactive) | > 100 µM (inactive) | > 100 µM (inactive) | > 100 µM (inactive) | > 100 µM (inactive) | > 100 µM (inactive) | > 100 µM (inactive)
CC(=O)CC(=O)Nc1ccccc1[N+](=O)[O-] | > 100 µM (inactive) | > 100 µM (inactive) | > 100 µM (inactive) | > 100 µM (inactive) | > 100 µM (inactive) | > 100 µM (inactive) | > 100 µM (inactive) | > 100 µM (inactive) | > 100 µM (inactive) | > 100 µM (inactive) | > 100 µM (inactive) | > 100 µM (inactive) | > 100 µM (inactive) | > 100 µM (inactive) | > 100 µM (inactive) | > 100 µM (inactive) | > 100 µM (inactive) | > 100 µM (inactive) | > 100 µM (inactive) | > 100 µM (inactive)
Cc1nn(C(=O)c2ccc(Cl)cc2)c2c1C(c1cccc([N+](=O)[O-])c1)SC(=N)N2 (centres undefined) | > 10 µM (inactive) | > 10 µM (inactive) | > 10 µM (inactive) | > 10 µM (inactive) | > 10 µM (inactive) | > 10 µM (inactive) | > 10 µM (inactive) | > 10 µM (inactive) | > 10 µM (inactive) | > 10 µM (inactive) | > 10 µM (inactive) | > 10 µM (inactive) | > 10 µM (inactive) | > 10 µM (inactive) | > 10 µM (inactive) | > 10 µM (inactive) | > 10 µM (inactive) | > 10 µM (inactive) | > 10 µM (inactive) | > 10 µM (inactive)
c1ccc(-c2nc(-c3ccccc3)c(-c3ccccc3)[nH]2)cc1 | 75 µM (inactive) | > 100 µM (inactive) | > 100 µM (inactive) | > 100 µM (inactive) | > 87.5 µM (inactive) | > 100 µM (inactive) | 55.2 µM (inactive) | > 47.6 µM (inactive) | > 82.6 µM (inactive) | 17 µM (inactive) | 42.3 µM (inactive) | > 100 µM (inactive) | > 100 µM (inactive) | > 100 µM (inactive) | 36.1 µM (inactive) | > 100 µM (inactive) | > 94.4 µM (inactive) | > 100 µM (inactive) | 54 µM (inactive) | > 94.6 µM (inactive)
